Assay results reported in patent publication US20250171462A1 (NICO Therapeutics, Inc., priority 2022, published 2025).
Read-outs that look alike come from different tables or passages of the source.

Target: T1, full-length SARM1 (FL-SARM1) (Homo sapiens, UniProt Q6SZW1)
T1 sequence (Q6SZW1 28-724): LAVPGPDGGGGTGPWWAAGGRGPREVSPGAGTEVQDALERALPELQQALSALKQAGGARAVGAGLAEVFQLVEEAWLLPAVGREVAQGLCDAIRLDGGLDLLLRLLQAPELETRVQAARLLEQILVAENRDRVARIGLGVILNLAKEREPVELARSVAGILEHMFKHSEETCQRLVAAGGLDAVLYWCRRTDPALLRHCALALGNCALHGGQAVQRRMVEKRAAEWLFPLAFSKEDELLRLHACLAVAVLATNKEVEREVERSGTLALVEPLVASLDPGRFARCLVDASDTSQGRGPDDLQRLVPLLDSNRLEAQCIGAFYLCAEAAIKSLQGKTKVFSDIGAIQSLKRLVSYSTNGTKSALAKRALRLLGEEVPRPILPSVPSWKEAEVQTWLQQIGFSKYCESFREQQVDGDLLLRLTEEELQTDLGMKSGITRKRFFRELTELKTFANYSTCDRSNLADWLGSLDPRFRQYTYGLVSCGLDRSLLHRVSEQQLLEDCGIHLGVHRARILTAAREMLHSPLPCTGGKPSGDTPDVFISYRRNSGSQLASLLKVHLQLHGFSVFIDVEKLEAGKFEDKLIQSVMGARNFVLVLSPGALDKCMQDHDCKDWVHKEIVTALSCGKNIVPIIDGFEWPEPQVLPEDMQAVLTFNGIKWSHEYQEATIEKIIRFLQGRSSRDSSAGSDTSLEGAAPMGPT
Assay: FL-SARM1 cellular lysate assay (NAD/NADH-Glo detection of remaining NAD+, NMN-activated)

[1] = Activity (IC50 class), 11 point curve
[2] = Activity (μM) (IC50), 11 point curve

Row | SMILES | IC50 [1] | IC50 [2] | IC50 (read-out: Activity (IC50 class), 11 point curve)
1 | Cc1ccc(NC(=O)[C@H]2C[C@@H](OC(F)(F)F)C2)cc1-c1ccccn1 [Example 136, cis-N-(4-methyl-3-pyridin-2-ylphenyl)-3-(trifluoromethoxy)cyclobutane-1-carboxamide] | 1 to 10 µM | 6.4 µM | 
2 | Cc1ccc(NC(=O)C(C)(C)C)cc1-c1ccccn1 [Example 141, 2,2-dimethyl-N-(4-methyl-3-pyridin-2-ylphenyl)propanamide] | > 10 µM | 19 µM | 
3 | Cc1ccc(NC(=O)[C@@H]2CC2(F)F)cc1-c1ccccn1 [Example 142, (1S)-2,2-difluoro-N-(4-methyl-3-pyridin-2-ylphenyl)cyclopropane-1-carboxamide] | 1 to 10 µM | 2.6 µM | 
4 | Cc1ccc(NC(=O)CN2C(=O)COCc3ccccc32)cc1-c1ccccn1 [Example 144, N-(4-methyl-3-pyridin-2-ylphenyl)-2-(2-oxo-5H-4,1-benzoxazepin-1-yl)acetamide] | 1 to 10 µM | 9.7 µM | 
5 | N#CCc1ccc(NC(=O)[C@@H]2CC2(F)F)cc1-c1ccccn1 [Example 145, (1S)-N-[4-(cyanomethyl)-3-pyridin-2-ylphenyl]-2,2-difluorocyclopropane-1-carboxamide] | 1 to 10 µM | 5 µM | 
6 | CCc1ccc(-c2cc(NC(=O)[C@@H]3CC3(F)F)ccc2C)nc1 [Example 146, (1S)-N-[3-(5-ethylpyridin-2-yl)-4-methylphenyl]-2,2-difluorocyclopropane-1-carboxamide] | 1 to 10 µM | 7.3 µM | 
7 | Cc1ccc(NC(=O)C2CC3CCC2C3)cc1-c1ccccn1 (stereo not drawn) [Example 147, N-(4-methyl-3-pyridin-2-ylphenyl)bicyclo[2.2.1]heptane-2-carboxamide] |  | 0.2 µM | 0.0001 to 1 µM
8 | O=C(Nc1ccc(-c2ccccc2)c(-c2ccccn2)c1)[C@@H]1CC1(F)F [Example 148, (1S)-2,2-difluoro-N-(4-phenyl-3-pyridin-2-ylphenyl)cyclopropane-1-carboxamide] | > 10 µM | 38 µM | 
9 | Cc1ccc(NC(=O)[C@@H]2CC2(F)F)cc1-c1ccc(C2CC2)cn1 [Example 149, (1S)-N-[3-(5-cyclopropylpyridin-2-yl)-4-methylphenyl]-2,2-difluorocyclopropane-1-carboxamide] | > 10 µM | 17 µM | 
10 | O=C(Nc1ccc(C(F)(F)F)c(-c2ccccn2)c1)[C@@H]1CC1(F)F [Example 150, (1S)-2,2-difluoro-N-[3-pyridin-2-yl-4-(trifluoromethyl)phenyl] cyclopropane-1-carboxamide] | 1 to 10 µM | 3.7 µM | 
11 | CC(C)c1ccc(NC(=O)[C@@H]2CC2(F)F)cc1-c1ccccn1 [Example 151, (1S)-2,2-difluoro-N-(4-propan-2-yl-3-pyridin-2-ylphenyl)cyclopropane-1-carboxamide] | 1 to 10 µM | 4.2 µM | 
12 | COc1ccc(-c2cc(NC(=O)[C@@H]3CC3(F)F)ccc2C)nc1 [Example 152, (1S)-2,2-difluoro-N-[3-(5-methoxypyridin-2-yl)-4-methylphenyl]cyclopropane-1-carboxamide] | 1 to 10 µM | 3.6 µM | 
13 | COc1cccc(-c2cc(NC(=O)[C@@H]3CC3(F)F)ccc2C)n1 [Example 153, (1S)-2,2-difluoro-N-[3-(6-methoxypyridin-2-yl)-4-methylphenyl]cyclopropane-1-carboxamide] | > 10 µM | 18 µM | 
14 | Cc1ccc(NC(=O)[C@@H]2CC2(F)F)cc1-c1ccc(C(F)(F)F)cn1 [Example 154, (1S)-2,2-difluoro-N-[4-methyl-3-[5-(trifluoromethyl)pyridin-2-yl]phenyl]cyclopropane-1-carboxamide] | 1 to 10 µM | 9.9 µM | 
15 | O=C(Nc1ccc(C2CC2)c(-c2ccc(F)cn2)c1)[C@@H]1CC1(F)F [Example 155, (1S)-N-[4-cyclopropyl-3-(5-fluoropyridin-2-yl)phenyl]-2,2-difluorocyclopropane-1-carboxamide] | 1 to 10 µM | 3.5 µM | 
16 | Cc1ccc(NC(=O)[C@@H]2CC2(F)F)cc1-c1ncccc1C [Example 156, (1S)-2,2-difluoro-N-[4-methyl-3-(3-methylpyridin-2-yl)phenyl]cyclopropane-1-carboxamide] | 1 to 10 µM | 2.5 µM | 
17 | Cc1ccc(NC(=O)[C@@H]2CC2(F)F)cc1-c1cc(C#N)ccn1 [Example 157, (1S)-N-[3-(4-cyanopyridin-2-yl)-4-methylphenyl]-2,2-difluorocyclopropane-1-carboxamide] | > 10 µM | 38 µM | 

Row | SMILES | IC50 [1] | IC50 [2] | IC50 (read-out: Activity (IC50 class), 11 point curve)
18 | Cc1ccc(NC(=O)[C@@H]2CC2(F)F)cc1-c1ccc(C#N)cn1 [Example 158, (1S)-N-[3-(5-cyanopyridin-2-yl)-4-methylphenyl]-2,2-difluorocyclopropane-1-carboxamide] | > 10 µM | 37 µM | 
19 | Cc1ccc(NC(=O)[C@@H]2CC2(F)F)cc1-c1cccc(C#N)n1 [Example 159, (1S)-N-[3-(6-cyanopyridin-2-yl)-4-methylphenyl]-2,2-difluorocyclopropane-1-carboxamide] | 1 to 10 µM | 9.8 µM | 
20 | Cc1ccc(NC(=O)[C@@H]2CC2(F)F)cc1-c1ccc(Cl)cn1 [Example 160, (1S)-N-[3-(5-chloropyridin-2-yl)-4-methylphenyl]-2,2-difluorocyclopropane-1-carboxamide] | 1 to 10 µM | 2.5 µM | 
21 | Cc1ccnc(-c2cc(NC(=O)[C@@H]3CC3(F)F)ccc2C)c1 [Example 161, (1S)-2,2-difluoro-N-[4-methyl-3-(4-methylpyridin-2-yl)phenyl]cyclopropane-1-carboxamide] | 1 to 10 µM | 3.5 µM | 
22 | Cc1ccc(-c2cc(NC(=O)[C@@H]3CC3(F)F)ccc2C)nc1 [Example 162, (1S)-2,2-difluoro-N-[4-methyl-3-(5-methylpyridin-2-yl)phenyl]cyclopropane-1-carboxamide] | 1 to 10 µM | 2.5 µM | 
23 | Cc1cccc(-c2cc(NC(=O)[C@@H]3CC3(F)F)ccc2C)n1 [Example 163, (1S)-2,2-difluoro-N-[4-methyl-3-(6-methylpyridin-2-yl)phenyl]cyclopropane-1-carboxamide] | > 10 µM | 26 µM | 
24 | Cc1ccc(NC(=O)CC2CCC2)cc1-c1ccc(F)cn1 [Example 164, 2-cyclobutyl-N-[3-(5-fluoropyridin-2-yl)-4-methylphenyl]acetamide] | 1 to 10 µM | 1.4 µM | 
25 | Cc1ccc(NC(=O)CC2CCC2)cc1-c1ncccc1F [Example 165, 2-cyclobutyl-N-[3-(3-fluoropyridin-2-yl)-4-methylphenyl]acetamide] | 1 to 10 µM | 5.3 µM | 
26 | Cc1ccc(NC(=O)CC2CCC2)cc1-c1cnccn1 [Example 166, 2-cyclobutyl-N-(4-methyl-3-pyrazin-2-ylphenyl)acetamide] | > 10 µM | 19 µM | 
27 | Cc1ccc(NC(=O)CC2CCC2)cc1-c1cccnn1 [Example 167, 2-cyclobutyl-N-(4-methyl-3-pyridazin-3-ylphenyl)acetamide] | > 10 µM | 11 µM | 
28 | Cc1ccc(NC(=O)CC2CCC2)cc1-c1ccccn1 [Example 168, 2-cyclobutyl-N-(4-methyl-3-pyridin-2-ylphenyl)acetamide] | 1 to 10 µM | 1.3 µM | 
29 | Cc1ccc(NC(=O)[C@H]2C[C@H]3C[C@H]3N2)cc1-c1ncc(F)cn1 [Example 170, (1R,3R,5R)—N-(3-(5-fluoropyrimidin-2-yl)-4-methylphenyl)-2-azabicyclo[3.1.0]hexane-3-carboxamide] | 1 to 10 µM | 2.7 µM | 
30 | Cc1nnc(CN2[C@@H](C(=O)Nc3ccc(C)c(-c4ncc(F)cn4)c3)C[C@H]3C[C@H]32)o1 [Example 171, (1R,3R,5R)—N-(3-(5-fluoropyrimidin-2-yl)-4-methylphenyl)-2-((5-methyl-1,3,4-oxadiazol-2-yl)methyl)-2-azabicyclo[3.1.0]hexane-3-carboxamide] | > 10 µM | 18 µM | 
31 | CSc1ncc(N2[C@@H](C(=O)Nc3ccc(C)c(-c4ncc(F)cn4)c3)C[C@H]3C[C@H]32)nn1 [Example 172, (1R,3R,5R)—N-(3-(5-fluoropyrimidin-2-yl)-4-methylphenyl)-2-(3-(methylthio)-1,2,4-triazin-6-yl)-2-azabicyclo[3.1.0]hexane-3-carboxamide] | 1 to 10 µM | 6.2 µM | 
32 | Cc1ccc(NC(=O)[C@H]2C[C@H]3C[C@H]3N2c2cncnn2)cc1-c1ncc(F)cn1 [Example 173, (1R,3R,5R)—N-(3-(5-fluoropyrimidin-2-yl)-4-methylphenyl)-2-(1,2,4-triazin-6-yl)-2-azabicyclo[3.1.0]hexane-3-carboxamide] | 1 to 10 µM | 4.2 µM | 
33 | Cc1ccc(NC(=O)[C@@H]2C[C@H](C(F)(F)F)CN2c2ncccn2)cc1-c1cccnn1 [Example 174, (2S,4S)—N-(4-methyl-3-(pyridazin-3-yl)phenyl)-1-(pyrimidin-2-yl)-4-(trifluoromethyl)pyrrolidine-2-carboxamide] | > 10 µM | 25 µM | 
